Structures can show the parent of a compound that is named as a salt.
How the values were obtained:
Format in all cases: cell-based
HEK293T cells = test: XTT assay in HEK293T cells
Experimental: (§1) To evaluate whether the compound I biological activity can imitate TAM67 specificity, three different transcriptional promoter reporters were used, AP-1, NFκB, and SRE (Serum response element) in luciferase reporter assays (FIG. 1A: The transfected cells were pre-treated with varied concentrations of compound I or DMSO for 1 hour before 18 hours stimulation by TPA (10 ng/ml) or DMSO as vehicle. An asterisk (*) indicates a separate experiment with NFκB dependent luciferase only. Assays were performed with two independent experiments each in quadruplicate.). All three activities were induced by TPA but only induction of AP-I and NFκB were inhibited by TAM67. The SRE reporter was used as a specificity control and indicator of cell proliferation. TPA-induced SRE activity was not repressed by TAM67 when coexpressed with the SRE-Luc reporter in HEK293 cells. The same concentration (10 ng/ml, 16.2 nM) and incubation time (18 hrs) were used for TPA induction as previously used for the high throughput screen (HTS) (Ruocco et al., J. Biomol. Screen., 2007, 12, 133-9) along with 1 h pretreatment of compound I. The screening results had tested concentrations as high as 40 μM compound I with cell numbers showing 95.5+/−6.2% of DMSO control (ave+/− sd, n=3) by the XTT assay in HEK293T cells.

JNK = test: Immunoblot of TPA-induced JNK phosphorylation; settings: 17.0 μM and 8.5 μM pretreatment
Experimental: (§2) To measure endogenous level of several proteins in response to TPA induction and compound I, HEK293 cells were lysed with RIPA buffer (10 mM Tris-HCl pH 7.5, 1 mM EDTA, 0.1% sodium dodecyl sulfate, 0.1% deoxycholate, and protease inhibitor). Whole cell extracts were subjected to immunoblot analysis with the following antibodies: p65 (F-6), p50 (E-10), p52 (C-5), RelB (C-19), IκBα (C-21), PCNA (F-2) were obtained from Santa Cruz Biotechnology (Santa Cruz, Calif.). IKKα, IKKβ, IKKγ, phospho-IκBα, phospho-IKKα/β, phospho-IKKγ, pohospho-Stat3 (Tyr 705 and Ser 727), phospho-p65 (Ser536 and Ser276), phospho-p44/42, phospho-JNKs were purchased from Cell Signaling (Danvers, Mass.), and α-tubulin from Sigma (St. Louis, Mo.). Nuclear and cytoplasmic extracts were prepared with HEK293 cells by NE-PER Nuclear and Cytoplasmic Extraction Reagents (Pierce Biotechnology, Rockford, Ill.) according to the manufacturer's protocol.
The selectivity of compound I was evaluated by measuring phosphorylation of proteins involved in the AP-1 induction pathway. AP-1 dependent transcription can be activated by MAP Kinases JNK, ERK 1/2 (p44/42). […] At these concentrations compound I, in contrast, completely repressed major regulators in the NFκB activation pathway. JNKs are activated by a variety of environmental stresses responsible for AP-1 activation through c-Jun phosphorylation. […]

IKKγ = test: Immunoblot of phosphorylated IKKγ in HEK293 cells; settings: compound I pretreatment
Experimental: as §2
To characterize the activity of compound I in targeting events upstream of NFκB, endogenous levels of kinases involved in NFκB activation were examined by immunoblot analysis. The well-established upstream regulators of NFκB activation are IKKα, IKKβ, and IκBα. […] Moreover, the phosphorylation of IκBα was inhibited even at 1.1 μM showing dose-dependent decrease by compound I pretreatment. […]

NFκB = NFκB luciferase reporter assay in HEK293 cells
Experimental: All expression plasmids were transiently transfected into HEK293 cells in a 96-well plate (0.1 μg/well) by using Effectene transfection reagent (Qiagen, Valencia, Calif.) according to the manufacturer's manual. HEK293 cells were maintained in Dulbecco's modified Eagle medium (Sigma, St. Louis, Mo.) supplemented with 10% fetal bovine serum (Atlanta Biologicals, Lawrenceville, Ga.) and incubated at 37° C. in a 5% CO2 incubator. After 24 hrs incubation, the medium was changed to DMEM with 0.2% FBS, and the transfectants were exposed to various concentrations of compound I and TPA (10 ng/ml). Cells were lysed with passive lysis buffer and the luciferase assay was performed using the Firefly-Luciferase reporter assay system (Promega, Madison, Wis.) and MLX Luminometer (Dynex Technology, Chantilly, Va.).
Three different luciferase reporter genes, AP-1 reporter containing four times TRE consensus originated from GCN4 and SRE reporter purchased from Stratagene (La Jolla, Calif.) respectively are as described previously (Suzukawa et al., Environ. Health Perspect., 2002, 110, 865-70). NFκB reporter is driven by five times NFκB responsive element inserted into Cis-reporter backbone (Stratagene, La Jolla, Calif.). Others include mouse COX-2 promoter region from −203 to +70 relative to the transcription site inserted into pTIS10L vector (Kim and Fischer, J. Biol. Chem., 1998, 273, 27686-94), human uPAR promoter region from −141 to +47 relative to transcription start site in pGL3 vector (Wang et al., Eur. J. Biochem., 2000, 267, 3248-54), and human VEGF promoter sequence from −2274 to +379 inserted into the pGL2 vector (Ding et al., J. Biol. Chem., 2006, 281, 9093-100).
as §1

Cell numbers, % of DMSO control (ave+/− sd, n=3) (HEK293T cells; 40 μM, XTT assay, HEK293T): 95.5+/−6.2%
IC50 (NFκB; Homo sapiens, HEK293, 1 h pretreatment, TPA 10 ng/ml 18 hrs, read-out: IC50 against TPA-induced NFκB reporter): ~4 µM
SMILES: Cc1cc(N)ccc1N=Nc1ccc(S(=O)(=O)CCOS(=O)(=O)O)cc1 [compound I, 2-(4-((4-amino-2-methylphenyl)diazenyl)phenylsulfonyl)ethyl hydrogen sulfate]
Cytotoxic or cytostatic activity (HEK293T cells; HEK293 cells): neither cytotoxic nor cytostatic activity
TPA-induced phosphorylation of endogenous JNK (JNK): no repression
Phosphorylation of IKKγ (IKKγ): did not change
Inhibition of TPA-induced NFκB luciferase activity (NFκB; HEK293, TPA 10 ng/ml, compound I at all concentrations tested): dose-dependently inhibited
Inhibition of NFκB induced by TNFα (NFκB; TNFα induction): dose-dependent inhibition
TPA-induced NFκB luciferase activity (NFκB; compound at 17.0 μM): completely blocked to the non-induced level
Transcriptional activation of NFκB dependent genes (NFκB; concentrations as low as 1.1 μM): repressed
Basal NFκB luciferase activity (NFκB; without TPA induction): inhibited, but to a lesser extent

Reference: US8729053B2, “Nuclear factor kappa B pathway inhibitor composition and use of same” (The United States of America, as represented by the …, priority 2008, dated 2014)
